Experimental data published in US20100189707A1, “Stable Enzymatic Peracid Generating Systems” (priority 2007, published 2010).

Key:
[1] = system: S54V-MsAcT; experiment: Enzymatic generation of PAA by S54V variant (ABTS assay); assay type: biochemical, M. smegmatis; settings: for relative conversion rate to PAA for the three ester substrates: with S54V-MsAcT, same method as for PGDA
Protocol: In these experiments, methods known in the art were used to determine the concentration of PAA (See e.g., Pinkernell et al., Analyst, 122:567-571 [1997]). In this ABTS assay, 100 μl of the solution to be analyzed was added to 1 ml of 125 mM potassium citrate buffer, pH 5.0, containing 1.0 mM 3-ethylbenzthiazoline-6-sulfonic acid (ABTS) and 50 uM KI, and allowed to incubate at RT for 3 minutes. The absorbance was measured at 420 nm in a HP 8452A Diode Array Spectrophotomer and compared to a standard curve prepared using authentic standard. The enzymatic reactions to form PAA were initiated with addition of enzyme and conducted at RT. Aliquots were withdrawn from the reactions at the indicated times and analyzed for PAA concentration. The sodium percarbonate used in these experiments was obtained from Kemira and the hydrogen peroxide was obtained from EM Science.
A solution of 39 mM sodium percarbonate (sodium carbonate peroxyhydrate, Technical grade 85%, yielding 100 mM effective H2O2; Kemira) was prepared in 320 mM KPO4 pH 7.1. […] To compare the enzymatic production of PAA from prepared H2O2 (32 wt %, Aldrich) or H2O2 formed from percarbonate under identical pH conditions, two reactions were prepared. One reaction contained 100 mM H2O2 in 320 mM KPO4, pH 7.6, 100 mM 1,2-propylene glycol diacetate (Aldrich), and 2 ppm variant S54V. The absolute concentration of H2O2 was assumed from the value stated on the label and not confirmed by analysis. The second reaction contained 39 mM sodium percarbonate in 320 mM KPO4, pH 7.1, 100 mM 1,2-propylene glycol diacetate, and 2 ppm S54V. The reactions were initiated by the addition of the enzyme. Samples were withdrawn at the times indicated and the concentration of PAA determined as described in Example 1.
In order to study the use of different propyl alcohol acetate ester substrates, the generation of PAA was carried out using the same general method described above for PGDA, but using either propyl acetate or triacetin as the ester substrate. […]
In this Example, experiments to assess the amount of peracetic acid produced from glucose and propyleneglycol diacetate are described. […] Further samples were withdrawn at the times indicated in FIG. 2, and the concentration of PAA determined as described above. No PAA was detected before the addition of enzyme and approximately 9.5 mM PAA was produced from the 20 mM 1,2-propylene glycol diacetate and the H2O2 produced from the glucose/glucose oxidase reaction.
In these experiments, three reactions were prepared, consisting of 320 mM KPO4 pH 7.1, 100 mM 1,2-propylene glycol diacetate (Aldrich), and 100 mM sodium percarbonate. […] Samples were withdrawn at the times indicated in the Figure, and the concentration of PAA determined as described above.

[2] = system: B. subtilis spores; experiment: Killing of B. subtilis spores by PAA; assay type: cell-based; settings: 15 min RT
Protocol: In this Example, experiments conducted to determine the killing curve of peracetic acid (PAA) and PAA in conjunction with detergent (commercially available PUREX® [Dial] was used in this Example) for B. subtilis spores. In these experiments, the B. subtilis spores were prepared as known in the art (See e.g., Siccardi et al., J. Bacteriol., 121:13-19 [1975]). Assays were carried out in duplicate in 96-well, round bottomed microtiter plates (Costar) with peracetic acid (32 wt % in acetic acid; Aldrich). The PAA was serially diluted in either 50 mM KPO4 buffer, pH 7.1 (“Buffer”), or in a 1:500 dilution of Purex (original formula; Dial) in the same buffer (“Buffer+Det”) in a total volume of 50 μl. The amount of PAA added to the assay was 0, 0.4, 4 or 40 mM. A volume of 5 μl of the spore suspension, containing 10^9-10^10 spores, was then added to each well and the assay incubated for 15 min at RT. Ice cold LB (150 μl) (See e.g., Sambrook et al., “Molecular Cloning: A Laboratory Manual”, Second Edition (Cold Spring Harbor), [1989]) was then added to each well, mixed, and 100 μl transferred to a fresh 96-well plate. Serial dilutions of each solution were made (in a total volume of 100 μl/well). A volume of 5 μl of each dilution was spotted onto LA plates (Sambrook et al., supra), and incubated at 37° C. for 17-24 h. Colonies were counted and the % spore killing was determined relative to the respective controls (buffer alone or buffer+detergent, without peracid). The results are presented in Table 1, as an average of duplicates from one experiment. However, the experiment was done twice in duplicate with similar results.

[3] = system: B. subtilis spores; experiment: MsAcT system generated PAA killing of B. subtilis spores in buffer or detergent; assay type: cell-based; settings: single reaction components in 400 mM KPO4 pH 7.1: 2 ppm S54V variant, 39 mM percarbonate, 100 mM PGDA
Protocol: In this experiment, sodium percarbonate was used as the source of H2O2. The final solution contained: 100 mM 1,2-propylene glycol diacetate, 2 ppm S54V variant, 39 mM sodium percarbonate (Technical grade 85%; yielding 100 mM effective H2O2) in 320 mM KPO4 pH 7.1 in a total volume of 800 μl. This mix (yield 40 mM PAA) was serially diluted to give additional mixes that yielded 4.9, 9.9 and 20.5 mM PAA. A mix with only 400 mM KPO4 pH 7.1 was used to determine total spore counts in the absence of PAA. The mixes were allowed to incubate at room temperature for 3 min. A volume of 180 μl of each of the mixes was then dispensed into duplicate wells of a round-bottomed 96-well plate (Costar) that contained 20 μl of the spore suspension used in Example 1, to yield a total volume of 200 μl in each well. The liquid was gently pipetted 4-5 times to ensure mixing of the components. The mixes were incubated with the spores for a further 15 or 30 minutes at room temperature. At the 15 and 30 minute time points, 20 μl were removed from each of the wells, added to wells in a fresh 96-well plate and serially diluted in LB to 10^−7 in a total volume of 100 μl. A volume of 5 μl from each dilution of each spore mixture was spotted onto an LA plate, allowed to dry and then incubated overnight at 37° C. Also at the 15 and 30 min time points, an appropriate volume was removed from each well and diluted sufficiently in dH2O to yield a measurable amount of PAA using the ABTS assay on scale with a standard, as described in Example 1. The results of the spore killing are presented as an average of the duplicates.
The experiment was repeated exactly as described except that a 1:500 dilution of Purex in 320 mM KPO4 pH 7.1, was used in place of the buffer. The results are presented in Table 3 (average of duplicates). Controls included various reaction components in 400 mM KPO4 pH 7.1 buffer: 2 ppm S54V variant, 2 ppm S54V variant with 39 mM percarbonate, 100 mM 1,2-propylene glycol diacetate, 100 mM 1,2-propylene glycol diacetate with 39 mM sodium percarbonate, 39 mM sodium percarbonate. […]

CCCOC(C)=O [propyl acetate]
relative conversion rate to PAA for the three ester substrates [1]: PGDA >triacetin >propyl acetate

CC(=O)OO [PAA, peracetic acid]
% Spore Killing ([2]; Buffer + Detergent, 0.4 mM PAA): 0.05%
Spores/ml ([2]; Buffer + Detergent, 0.4 mM PAA): 1.7 × 10^9 Spores/ml
% Spore Killing ([2]; Buffer + Detergent, 4 mM PAA): 86.4%
Spores/ml ([2]; Buffer + Detergent, 4 mM PAA): 2.4 × 10^8 Spores/ml
% Spore Killing ([2]; Buffer + Detergent, 40 mM PAA): 100%
Spores/ml ([2]; Buffer + Detergent, 40 mM PAA): 0 Spores/ml
% Spore Killing ([2]; Buffer, 0.4 mM PAA): 86.4%
Spores/ml ([2]; Buffer, 0.4 mM PAA): 2.4 × 10^8 Spores/ml
% Spore Killing ([2]; Buffer, 4 mM PAA): 90%
Spores/ml ([2]; Buffer, 4 mM PAA): 1.6 × 10^8 Spores/ml
% Spore Killing ([2]; Buffer, 40 mM PAA): 100%
Spores/ml ([2]; Buffer, 40 mM PAA): 0 Spores/ml

CC(=O)OCC(C)OC(C)=O (stereo not shown) [PGDA, 1,2-propylene glycol diacetate]
relative conversion rate to PAA for the three ester substrates [1]: PGDA >triacetin >propyl acetate
spores/ml after a 30 min incubation [3]: 5×10^9 spores/ml

O=C([O-])[O-].O=C([O-])[O-].OO.OO.OO.[Na+].[Na+].[Na+].[Na+] [sodium percarbonate]
spores/ml after a 30 min incubation [3]: 1×10^9 spores/ml

B1: S54V variant: M. smegmatis acyl transferase variant comprising the S54V substitution (protein)
chain: MAKRILCFGDSLTWGWVPVEDGAPTERFAPDVRWTGVLAQQLGADFEVIEEGLVARTTNIDDPTDPRLNGASYLPSCLATHLPLDLVIIMLGTNDTKAYFRRTPLDIALGMSVLVTQVLTSAGGVGTTYPAPKVLVVSPPPLAPMPHPWFQLIFEGGEQKTTELARVYSALASFMKVPFFDAGSVISTDGVDGIHFTEANNRDLGVALAEQVRSLL
PAA produced ([1]; 20 mM 1,2-propylene glycol diacetate, H2O2 from glucose/glucose oxidase, 2 ppm S54V variant, RT): approximately 9.5 mM
temperature up to which the enzyme system is functional ([1]; 2 ppm S54V variant, 100 mM PGDA, 100 mM sodium percarbonate, 21, 40, 60° C.): ≥ 60 °C
spores/ml after a 30 min incubation [3]: 5×10^9 spores/ml
